For assay [1], the system named is TPA-induced inflammation in the mouse ear. As to the kind of experiment: Topical anti-inflammatory activity: TPA-induced inflammation (edema) in the mouse ear. Format: in vivo, mouse (male CD-1). The conditions noted are these: for inhibition in vivo at 100 µg/ear: Mus musculus, @ 100 μg, 5-6 h after TPA; for Inhibition of ear edema, IC50: multiple-dose experiment, dose for 50% inhibition of weight gain. On the procedure: The topical anti-inflammatory activity of the compounds is determined by measuring the degree of inhibition of TPA-induced inflammation in the mouse ear, using essentially the procedure of C. Van Arman, Clin. Pharmacol. Ther., 16, 900 (1974). Male CD-1 mice are used at seven to nine weeks of age. 12-O-tetradecanoylphorbol acetate ([…] in 20 μl of acetone) is dispensed onto the dorsum of the left ear of each mouse, and the right ear is left untreated. Ten mice so treated serve as the control group. […]
After five to six hours, the animals are sacrificed by CO2 inhalation, the ears are removed, and 7 mm circular punch biopsies of are taken from each ear and weighed. The difference in biopsy weight between treated and untreated ears is determined, and the degree of anti-inflammatory activity is expressed in terms of the percent inhibition of ear weight increase relative to the control group. In multiple-dose experiments, varying amounts of the compound to be tested are applied along with the TPA and the results are expressed as the ED50, the dose at which a 50% inhibition of weight gain is observed.

For assay [2], the target named is T1, human platelet phospholipase A2 (Homo sapiens, UniProt P14555).
T1 construct: a preparation of human platelet phospholipase A2; from tissue; host or cells: human platelets
T1 sequence (P14555 21-144): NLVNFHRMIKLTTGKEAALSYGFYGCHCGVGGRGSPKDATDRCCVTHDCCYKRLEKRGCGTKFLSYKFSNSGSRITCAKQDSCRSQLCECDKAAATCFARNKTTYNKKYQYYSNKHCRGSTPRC
Put plainly: Inhibition of human platelet phospholipase A2 (14C-oleate E. coli substrate). Format: biochemical. As to conditions: for inhibition at 50 µM: read-out: Inhibition of PLA2, % Inhibition @ 50 μM; for IC50: pH 7.0, 37°, 60 min incubation, read-out: Inhibition of PLA2, IC50. On the procedure: The activity of the compounds of the invention against phospholipase A2 is determined using a preparation of human platelet phospholipase A2 with a specific activity of 180 nmol/min/mg as the enzyme source. Polypropylene 15-ml test tubes are utilized as the reaction vessels. All drug samples are run in duplicate, with "blank" and "control" (no test compound) groups run in triplicate. […] Test compounds are dissolved in DMSO, and diluted to a projected final concentration of either 50 or 10 μM in 550 μl HEPES buffer at pH 7.0. A 1:7 dilution of human platelet PLA2 in HEPES buffer (5 μl) is added to each test tube, followed by gentle vortexing for 3 seconds. The reaction tubes containing drug, buffer, and enzyme are preincubated for 15 min at 37°, followed by the addition of 25 μl of ^14 C-oleate E. coli substrate. Details regarding this substrate may be found in a publication by S. Ghosh and R. Franson, Biochem. Cell. Biol., 70, 43 (1992), and references therein.
The tubes are immediately vortexed at moderate speed for 3 sec, followed by a 60 min incubation at 37° in a shaking water bath. The reaction is stopped by the addition of 3 ml of a 1:2 chloroform-methanol mixture. Additional water (1.5 ml) and chloroform (1.0 ml) are added, followed by vortexing. The lower phase is removed with a polypropylene transfer pipette, and transferred to a 13×100 mm polypropylene test tube. The organic solvent is evaporated with a stream of nitrogen, the residue is redissolved in 30 μl of a 9:1 chloroform-methanol mixture, and the solution is spotted on a channeled polyester-backed silica gel TLC plate, such as those available under the trade name PE SIL G available from Whatman Inc, Clifton, N.J.
The plate is developed with an 80:20:1 mixture of petroleum ether-diethyl ether-acetic acid. […] The plate is scored above the origin, cut along the score with scissors, and the reactant (origin) and product portions of each channel are put into separate scintillation vials. To each vial is added a scintillation cocktail (15 ml), preferably that sold under the trademark ECOLUME by ICN Biomedicals, Irvine Calif. The vials are shaken vigorously for 5 sec, and the radioactive ^14 C in each vial is measured with a scintillation counter, which provides the counts-per-minute (cpm) for each sample. The obtained cpm values are corrected for the "blank" values.
The percentage of phospholipid hydrolyzed is calculated by the formula:
Phospholipid converted=100×cpm products / (cpm products+cpm
The inhibition of phospholipase A2 by the test compounds is expressed as a percent inhibition relative to the control group:
% Inhibition=[…]

The test system of assay [3] is PLA2. The conditions noted are these: literature; cited from earlier work.

Molecules are shown by their SMILES.

Usually inhibition in vivo stands for the share of the control response that was lost under treatment. A high value points to strong suppression. For orientation: inhibition means the share of the control response that was lost under treatment. For the compound `CCCCC/C=C/Cc1cc(C2=CC(=O)OC2O)ccc1O` (stereo not drawn) [Example 38, (E)-5-Hydroxy-4-(4-hydroxy-3-(2-octenyl)phenyl)-2(5H)-furanone], in assay [1], the inhibition in vivo at 100 µg/ear came out at 78% and the “Inhibition of ear edema, IC50” value was found to be 27 µg. In assay [2], the inhibition at 50 µM was 85%.

As usually defined, the IC50 is the point on the concentration scale where inhibition reaches its midpoint. Regarding `CC1=C(CCC(C)Oc2ccc(C3=CC(=O)OC3O)cc2)C(C)(C)CCC1` (stereo not drawn) [Example 39, (E)-5-Hydroxy-4-(4-((1-methyl-3-(2,6,6-trimethyl-1-cyclohexen-1-yl)propyl)oxy)phenyl)-2(5H)-furanone], in assay [1], the inhibition in vivo at 100 µg/ear is 48% and the “Inhibition of ear edema, IC50” value is 94 µg. For the same compound, in assay [2], the IC50 worked out at 20 µM and the inhibition at 50 µM stood at 95%.

For the compound `CCCCC/C=C\C/C=C\CCCCCCCCOc1cccc(C2=CC(=O)OC2O)c1` (stereo not drawn) [Example 40, (Z,Z)-5-Hydroxy-4-((3-(octadeca-9,12-dienyl)oxy)phenyl)-2(5H)-furanone], in assay [1], the inhibition in vivo at 100 µg/ear amounted to 80%. Besides, in assay [2], the concentration for half-maximal inhibition (IC50) was 7 µM and the inhibition at 50 µM came out at 100%.

Turning to `C=CCc1ccc(C2=CC(=O)OC2O)cc1O` (stereo not drawn) [Example 41, 5-Hydroxy-4-(3-hydroxy-4-(2-propenyl)phenyl)-2(5H)-furanone], in assay [1], the inhibition in vivo at 100 µg/ear amounted to 64%. Further, in assay [2], the inhibition at 50 µM was determined as 0%.

`O=C1C=C(c2ccccc2)C(O)O1` (stereo not drawn) [Example 42, 5-Hydroxy-4-phenyl-2(5H)-furanone] had an inhibition in vivo at 100 µg/ear in assay [1] of 45%. For the same compound, the inhibition at 50 µM in assay [2] was found to be 9%.

On to `O=C1C=C(c2cccc(Oc3ccccc3)c2)C(O)O1` (stereo not drawn) [Example 43, 5-Hydroxy-4-(3-phenoxyphenyl)-2(5H)-furanone], for which the inhibition in vivo at 100 µg/ear in assay [1] was 52%. The inhibition at 50 µM in assay [2] turned out to be 30%.

Take `O=C1C=C(c2ccc(OCc3ccc(C#Cc4ccccc4)cc3)cc2)C(O)O1` (stereo not drawn) [Example 44, 5-Hydroxy-4-(4-((4-(2-phenylethynyl)phenyl)methoxy)phenyl)-2(5H)-furanone]: the inhibition in vivo at 100 µg/ear in assay [1] was 43%. In assay [2], the inhibition at 50 µM came out at 90%.

Compound `CCCCCCC#Cc1ccc(C2=CC(=O)OC2O)cc1` (stereo not drawn) [Example 54, 5-Hydroxy-4-(4-(1-octynyl)phenyl)-2(5H)-furanone] returned an inhibition in vivo at 100 µg/ear in assay [1] of 9%. In assay [2], the 50% inhibitory concentration (IC50) worked out at 5 µM and the inhibition at 50 µM was determined as 100%.

For `O=C1C=C(c2ccc(C#Cc3ccccc3)cc2)C(O)O1` (stereo not drawn) [Example 55, 5-Hydroxy-4-(4-(2-phenylethynyl)phenyl)-2(5H)-furanone], in assay [1], the inhibition in vivo at 100 µg/ear came to 79% and the “Inhibition of ear edema, IC50” value is 37 µg. Besides, in assay [2], the IC50 amounted to 19 µM and the inhibition at 50 µM is 67%.

For the compound `CCCCCCCCOc1ccc(SC2=CC(=O)OC2O)cc1` (stereo not drawn) [Example 64, 5-Hydroxy-4-(4-(octyloxy)phenylthio)-2(5H)-furanone], the inhibition in vivo at 100 µg/ear in assay [1] stood at 48%. Further, in assay [2], the IC50 was 5 µM and the inhibition at 50 µM was found to be 96%.

Turning to `CC1=C(CC/C(C)=C/CCC2=CCC(C3=CC(=O)OC3O)OC2O)C(C)(C)CCC1` (stereo not drawn) [Manoalide, manoalide], in assay [3], the “inhibition of PLA2” value is listed as “potent inhibitor of PLA2” and the “nature of PLA2 inhibition” value is listed as “irreversible nature of PLA2 inhibition”.

These data come from patent US5464865A, “4-aryl- and 4-arylthio-5-hydroxy-2(5H)-furanones as inhibitors of phospholipase A2” (Ortho Pharmaceutical Corporation, priority 1993, dated 1995).
